The test system of experiment [1] is NCI-H460 cells. As to the kind of experiment: Cancer cell growth inhibition experiment (MTT assay). The experiment is classed as cell-based. To be noted: Homo sapiens; NCI-H460 lung cancer cell line; 48 hours treatment; MTT cell viability. The procedure: NCI-H460 cells, lung cancer cell lines, were cultured in 5% CO2, 37° C. incubator using a flask for 75 cm^2 tissue culture. 96-well plates were used for the evaluation. These were prepared by differently applying at concentrations in the range of 6,000 to 12,000 cells/well according to the growth rate of the cell lines. The medium containing 5% FBS were dispensed in 200 μL/well and used. The medium were cultured for 24 hours. After confirming the cell status and dispensing form of a 96-well plate under a microscope, they were used for subsequent experiments. The compounds were evaluated at concentrations of 100, 30, 10, 3, 1, 0.3, 0.03, 0.01 μM. After removing the existing medium, the compounds with various concentrations were treated in an amount of 200 μL/well. The compounds-treated plates were further cultured for 48 hours, and the cell viabilities were measured by MTT assay to calculate IC50 values.
% Inhibition and IC50 values of the respective compounds were calculated and analyzed using Sigma Plot 8.0. The case where the derived IC50 is 5 μM or less is represented by “A”, the case where the IC50 is 5 to 30 μM is represented by “B”, and the case where the IC50 is 30 μM or higher is represented by “C”.

For experiment [2], the target named is T1, PRS (prolyl-tRNA synthetase) (Homo sapiens, UniProt P07814).
T1 construct: the portion corresponding to PRS in cDNA of EPRS was subcloned; made in house
T1 sequence (P07814 1007-1512 limits assumed): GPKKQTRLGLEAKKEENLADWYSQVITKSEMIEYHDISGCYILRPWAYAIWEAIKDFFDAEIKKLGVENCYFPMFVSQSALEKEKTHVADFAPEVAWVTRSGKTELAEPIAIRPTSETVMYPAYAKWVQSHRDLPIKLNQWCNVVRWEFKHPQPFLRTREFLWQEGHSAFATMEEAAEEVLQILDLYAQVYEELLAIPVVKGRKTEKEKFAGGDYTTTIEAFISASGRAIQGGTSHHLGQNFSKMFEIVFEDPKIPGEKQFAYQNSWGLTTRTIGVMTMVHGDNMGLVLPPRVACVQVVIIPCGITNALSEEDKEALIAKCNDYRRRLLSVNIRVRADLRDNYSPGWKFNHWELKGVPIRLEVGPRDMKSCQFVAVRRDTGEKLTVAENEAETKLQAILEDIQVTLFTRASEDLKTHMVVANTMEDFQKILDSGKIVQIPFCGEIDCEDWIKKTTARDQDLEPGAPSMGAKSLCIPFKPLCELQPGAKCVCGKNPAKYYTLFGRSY
As to the kind of experiment: In vitro PRS enzyme activity inhibition experiment ([3H]proline, liquid scintillation). The experiment is classed as biochemical. To be noted: purified PRS protein subcloned from EPRS cDNA; 37° C., 5 to 10 minutes; read-out: PRS IC50. The procedure:
In order to confirm the biological activities of the compounds prepared in Examples, % inhibition or IC50 values of PRS enzyme ([…]) activities were calculated.
Specifically, the portion corresponding to PRS in cDNA of EPRS was subcloned, and the obtained high-purity PRS protein was purified and used in the experiment. The compounds (1 μM) prepared in Examples were added into the reaction buffer (20 mM KPO4 (pH 7.4), 6 mM MgAc, 5 mM ATP, […] tRNA, 0.5 mM DTT, 20 mCi[^3H]proline (1 mCi/mL)) and allowed to react at 37° C. for 5 to 10 minutes. The reaction was terminated with 3M paper that was previously dried by addition of 5% TCA. The radioactivity was measured using a liquid scintillation counter.
IC50 values of the respective compounds were calculated and analyzed using Microsoft Excel or Sigma Plot 8.0. In Table 1, the results are divided into A, B and C according to the range of IC50. The case where the derived IC50 is 100 nM or less is represented by “A”, the case where the IC50 is 100 to 500 nM is represented by “B”, and the case where the IC50 is 500 nM or higher is represented by “C”.

On to `O=C(C[C@H]1NCCC[C@@H]1O)Cn1nnc2cc(Cl)ccc21` [Example 99, 1-(5-chloro-1H-benzo[d][1,2,3]triazol-1-yl)-3-((2R,3S)-3-hydroxypiperidin-2-yl)propan-2-one], for which the IC50 is ≥ 30 µM in experiment [1] and 0.1 to 0.5 µM in experiment [2].
The like results for `O=C(C[C@H]1NCCC[C@@H]1O)Cn1cnc2c(Cl)c(Cl)ccc21` [Example 12, 1-(4,5-dichloro-1H-benzo[d]imidazol-1-yl)-3-((2R,3S)-3-hydroxypiperidin-2-yl)propan-2-one] were, in that order, ≤ 5 µM and < 0.1 µM.
With `O[C@H]1CCCN[C@@H]1CC(F)(F)Cn1cnc2cc(Cl)c(Cl)cc21` [Example 82, (2R,3S)-2-(3-(5,6-dichloro-1H-benzo[d]imidazol-1-yl)-2,2-difluoropropyl)piperidin-3-ol], the IC50 in experiment [1] was ≥ 30 µM; in experiment [2], > 0.5 µM.
For `O=C(C[C@H]1NCCC[C@@H]1O)Cn1cnc2c(Cl)c(Br)ccc21` [Example 22, 1-(5-bromo-4-chloro-1H-benzo[d]imidazol-1-yl)-3-((2R,3S)-3-hydroxypiperidin-2-yl)propan-2-one], in that order: ≤ 5 µM and < 0.1 µM.
For `O=C(C[C@H]1NCCC[C@@H]1O)Cn1cnc2c(F)c(Br)ccc21` [Example 20, 1-(5-bromo-4-fluoro-1H-benzo[d]imidazol-1-yl)-3-((2R,3S)-3-hydroxypiperidin-2-yl)propan-2-one], the IC50 in experiment [1] is ≤ 5 µM; in experiment [2] it was < 0.1 µM.
On to `O=C(C[C@H]1NCCC[C@@H]1O)Cn1cnc2cnc(Cl)cc21` [Example 32, 1-(6-chloro-1H-imidazo[4,5-c]pyridin-1-yl)-3-((2R,3S)-3-hydroxypiperidin-2-yl)propan-2-one], for which the IC50 in experiment [1] was ≥ 30 µM; in experiment [2] it was 0.1 to 0.5 µM.
As for `Cc1cc2ncn(CC(=O)C[C@H]3NCCC[C@@H]3O)c2cc1C` [Example 9, 1-(5,6-dimethyl-1H-benzo[d]imidazol-1-yl)-3-((2R,3S)-3-hydroxypiperidin-2-yl)propan-2-one], the half-maximal inhibitory concentration (IC50) in experiment [1] is ≥ 30 µM; in experiment [2], < 0.1 µM.
For `O=C(C[C@H]1NCCC[C@@H]1O)Cn1cnc2cc(Cl)ccc21` [Example 2, 1-(5-chloro-1H-benzo[d]imidazol-1-yl)-3-((2R,3S)-3-hydroxypiperidin-2-yl)propan-2-one], in that order: 5 to 30 µM and < 0.1 µM.
Take `O=C(C[C@H]1NCCC[C@@H]1O)Cn1cnc2cc(Cl)c(Cl)cc21` [Example 25, 1-(5,6-dichloro-1H-benzo[d]imidazol-1-yl)-3-((2R,3S)-3-hydroxypiperidin-2-yl)propan-2-one]: the IC50 was ≤ 5 µM in experiment [1] and < 0.1 µM in experiment [2].
The like results for `Cc1c(Br)ccc2c1ncn2CC(=O)C[C@H]1NCCC[C@@H]1O` [Example 15, 1-(5-bromo-4-methyl-1H-benzo[d]imidazol-1-yl)-3-((2R,3S)-3-hydroxypiperidin-2-yl)propan-2-one] were, in that order, ≤ 5 µM and < 0.1 µM.
Turning to `COC(C[C@H]1NCCC[C@@H]1O)Cn1cnc2cc(Cl)c(Cl)cc21` (stereo partly drawn) [Example 83, (2R,3S)-2-(3-(5,6-dichloro-1H-benzo[d]imidazol-1-yl)-2-methoxypropyl)piperidin-3-ol], the values for the IC50 in experiment [1] and in experiment [2] were ≥ 30 µM and > 0.5 µM, respectively.
`O=C(C[C@H]1NCCC[C@@H]1O)Cn1cnc2c(C(F)(F)F)c(Br)ccc21` [Example 18, 1-(5-bromo-4-(trifluoromethyl)-1H-benzo[d]imidazol-1-yl)-3-((2R,3S)-3-hydroxypiperidin-2-yl)propan-2-one]: the IC50 was 5 to 30 µM in experiment [1] and < 0.1 µM in experiment [2].
For `O=C(C[C@H]1NCCC[C@@H]1O)Cn1cnc2cc(C(F)(F)F)ccc21` [Example 6, 1-((2R,3S)-3-hydroxypiperidin-2-yl)-3-(5-(trifluoromethyl)-1H-benzo[d]imidazol-1-yl)propan-2-one], in that order: ≥ 30 µM and 0.1 to 0.5 µM.
With `O=C(C[C@H]1NCCC[C@@H]1O)Cn1cnc2ccc(C(F)(F)F)cc21` [Example 7, 1-((2R,3S)-3-hydroxypiperidin-2-yl)-3-(6-(trifluoromethyl)-1H-benzo[d]imidazol-1-yl)propan-2-one], the IC50 in experiment [1] was 5 to 30 µM; in experiment [2], < 0.1 µM.
Consider `OC(C[C@H]1NCCC[C@@H]1O)Cn1cnc2c(Cl)c(Br)ccc21` (stereo partly drawn) [Example 71, (2R,3S)-2-(3-(5-bromo-4-chloro-1H-benzo[d]imidazol-1-yl)-2-hydroxypropyl)piperidin-3-ol], for which the IC50 was 5 to 30 µM in experiment [1] and < 0.1 µM in experiment [2].
For `O=C(C[C@H]1NCCC[C@@H]1O)Cn1c(CO)nc2ccccc21` [Example 56, 1-(2-(hydroxymethyl)-1H-benzo[d]imidazol-1-yl)-3-((2R,3S)-3-hydroxypiperidin-2-yl)propan-2-one], in that order: ≥ 30 µM and < 0.1 µM.
For `O=C(C[C@H]1NCCC[C@@H]1O)Cn1c(CO)nc2ccc(C(F)(F)F)cc21` [Example 59, 1-(2-(hydroxymethyl)-6-(trifluoromethyl)-1H-benzo[d]imidazol-1-yl)-3-((2R,3S)-3-hydroxypiperidin-2-yl)propan-2-one], in that order: 5 to 30 µM and < 0.1 µM.
The like results for `Cc1c(Br)ccc2c1ncn2CC(O)C[C@H]1NCCC[C@@H]1O` (stereo partly drawn) [Example 89, (2R,3S)-2-(3-(5-bromo-4-methyl-1H-benzo[d]imidazol-1-yl)-2-hydroxypropyl)piperidin-3-ol] were, in that order, ≥ 30 µM and < 0.1 µM.
For `O=C(C[C@H]1NCCC[C@@H]1O)Cn1cnc2ccc(Cl)cc21` [Example 3, 1-(6-chloro-1H-benzo[d]imidazol-1-yl)-3-((2R,3S)-3-hydroxypiperidin-2-yl)propan-2-one], the concentration for half-maximal inhibition (IC50) in experiment [1] was 5 to 30 µM; in experiment [2], < 0.1 µM.
For `O=C(C[C@H]1NCCC[C@@H]1O)Cn1c(CO)nc2ccc(Br)cc21` [Example 58, 1-(6-bromo-2-(hydroxymethyl)-1H-benzo[d]imidazol-1-yl)-3-((2R,3S)-3-hydroxypiperidin-2-yl)propan-2-one], in that order: 5 to 30 µM and < 0.1 µM.
As to `O=C(C[C@H]1NCCC[C@@H]1O)Cn1cnc2c(Cl)c(F)ccc21` [Example 21, 1-(4-chloro-5-fluoro-1H-benzo[d]imidazol-1-yl)-3-((2R,3S)-3-hydroxypiperidin-2-yl)propan-2-one], the results for the IC50 in experiment [1] and in experiment [2] were 5 to 30 µM and 0.1 to 0.5 µM, respectively.
For `Cc1c(Br)cnc2c1ncn2CC(O)C[C@H]1NCCC[C@@H]1O` (stereo partly drawn) [Example 78, (2R,3S)-2-(3-(6-bromo-7-methyl-3H-imidazo[4,5-b]pyridin-3-yl)-2-hydroxypropyl)piperidin-3-ol], in that order: ≥ 30 µM and < 0.1 µM.
With `O=C(C[C@H]1NCCC[C@@H]1O)Cn1cnc2ccc(Br)cc21` [Example 5, 1-(6-bromo-1H-benzo[d]imidazol-1-yl)-3-((2R,3S)-3-hydroxypiperidin-2-yl)propan-2-one], the IC50 in experiment [1] is 5 to 30 µM; in experiment [2] it was < 0.1 µM.
For `O=C(C[C@H]1NCCC[C@@H]1O)Cn1c(C(F)(F)F)nc2cc(Cl)c(Cl)cc21` [Example 50, 1-(5,6-dichloro-2-(trifluoromethyl)-1H-benzo[d]imidazol-1-yl)-3-((2R,3S)-3-hydroxypiperidin-2-yl)propan-2-one], in that order: ≥ 30 µM and > 0.5 µM.

The record behind these values is US10081634B2, “Heterocyclic compound” (Daewoong Pharmaceutical Co., Ltd., priority 2014, dated 2018).
